For the assay, the system named is 475296-252-R-J1-PDC spheroid viability. The assay is described as follows: Anticancer human tumor 475296-252-R-J1-PDC patient-derived rectal carcinoma cell line growth inhibition [PI3K]. The settings on record: spheroids with HUVEC and MSC; for viability, T/C: stronger effect = lower value. The gist of the method: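 Agents were dosed from a top concentration near clinical Cmax (otherwise 10 microM) in half-log decrements, alone or combined with PI3K inhibitors. The spheroids contain tumor cells plus endothelial (HUVEC) and MSC stroma; viability is measured.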

[1] abbreviates: curve of first compound, second compound 0.00316 µM.
The mark [2] stands for this setting: curve of first compound, second compound 0.01 µM.
Setting [3] is: curve of first compound, second compound 0.0316 µM.
Setting [4] is: curve of first compound, second compound 0.1 µM.
Setting [5] is: curve of first compound, second compound 0.316 µM.
Setting [6] is: curve of first compound, second compound 1 µM.
Setting [7] is: second compound 0.00316 µM, first compound 0.0316 µM.
Setting [8] is: second compound 0.00316 µM, first compound 0.1 µM.
[9] abbreviates: second compound 0.01 µM, first compound 0.0316 µM.
The mark [10] stands for this setting: second compound 0.01 µM, first compound 0.1 µM.
Setting [11] is: second compound 0.0316 µM, first compound 0.0316 µM.
The mark [12] stands for this setting: second compound 0.0316 µM, first compound 0.1 µM.
Setting [13] is: second compound 0.1 µM, first compound 0.0316 µM.
The mark [14] stands for this setting: second compound 0.1 µM, first compound 0.1 µM.
[15] abbreviates: second compound 0.316 µM, first compound 0.0316 µM.
Where [16] appears, read: second compound 0.316 µM, first compound 0.1 µM.
Where [17] appears, read: second compound 1 µM, first compound 0.0316 µM.
Where [18] appears, read: second compound 1 µM, first compound 0.1 µM.

As usually defined, the IC50 is the concentration needed to halve the response being measured. What is called viability, T/C is the result in the treated group divided by that in the control group, in per cent.

Several values for one entry are separate records, joined by “and”; a condition that tells them apart may be missing. Equal entries are not always repeated. A value given as a limit tells only on which side of the number the result lay.
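Note: spheroids exposed to agents for seven days before readout.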

For the molecule `Cn1ncnc1[C@H]1c2n[nH]c(=O)c3cc(F)cc(c23)N[C@@H]1c1ccc(F)cc1` + CC(Nc1ccc2c(c1)OCCn1cc(N3C(=O)OCC3C(F)F)nc1-2)C(N)=O, the IC50 is, setting by setting: under setting [1], more than 0.1 µM; under setting [2], more than 0.1 µM; under setting [3], more than 0.1 µM; under setting [4], more than 0.1 µM; under setting [5], more than 0.1 µM; under setting [6], more than 0.1 µM. For the same molecule, the viability, T/C (second compound 0.00316 µM, first compound 0.000316 µM) was 88.1%; the viability, T/C (second compound 0.00316 µM, first compound 0.001 µM) is 84.3%; the viability, T/C (second compound 0.00316 µM, first compound 0.00316 µM) was 94.8%; the viability, T/C (second compound 0.00316 µM, first compound 0.01 µM) was 93.2%; the viability, T/C under setting [7] is 97.2%; the viability, T/C under setting [8] is 90.1%. The viability, T/C (second compound 0.01 µM, first compound 0.000316 µM) is 98.4%; the viability, T/C (second compound 0.01 µM, first compound 0.001 µM) was 82.9%; the viability, T/C (second compound 0.01 µM, first compound 0.00316 µM) is 89.2%; the viability, T/C (second compound 0.01 µM, first compound 0.01 µM) was 95.1%; the viability, T/C under setting [9] is 92.8%; the viability, T/C under setting [10] was 92%. Moreover, the viability, T/C by setting is: (second compound 0.0316 µM, first compound 0.000316 µM) 86.1%; (second compound 0.0316 µM, first compound 0.001 µM) 104%; (second compound 0.0316 µM, first compound 0.00316 µM) 88.8%; (second compound 0.0316 µM, first compound 0.01 µM) 87.4%; under setting [11], 88%; under setting [12], 96.6%. Further, the viability, T/C (second compound 0.1 µM, first compound 0.000316 µM) is 92.4%; the viability, T/C (second compound 0.1 µM, first compound 0.001 µM) was 101%; the viability, T/C (second compound 0.1 µM, first compound 0.00316 µM) is 93.6%; the viability, T/C (second compound 0.1 µM, first compound 0.01 µM) is 92.6%; the viability, T/C under setting [13] was 89.7%; the viability, T/C under setting [14] was 97.9%. Also, the viability, T/C (second compound 0.316 µM, first compound 0.000316 µM) is 81.8%; the viability, T/C (second compound 0.316 µM, first compound 0.001 µM) is 83.4%; the viability, T/C (second compound 0.316 µM, first compound 0.00316 µM) is 86.1%; the viability, T/C (second compound 0.316 µM, first compound 0.01 µM) was 84.6%; the viability, T/C under setting [15] was 89.8%; the viability, T/C under setting [16] is 81.6%. For the same molecule, the viability, T/C reads like this: (second compound 1 µM, first compound 0.000316 µM) 84.5%; (second compound 1 µM, first compound 0.001 µM) 71.6%; (second compound 1 µM, first compound 0.00316 µM) 87%; (second compound 1 µM, first compound 0.01 µM) 89.1%; under setting [17], 85%; under setting [18], 79.6%.

As to `C#Cc1c(F)ccc2cc(O)cc(-c3ncc4c(N5CC6CCC(C5)N6)nc(OCC56CCCN5CC(F)C6)nc4c3F)c12` (stereo unspecified), the viability, T/C is, setting by setting: (compound 0.0316 µM) 95.9% [middle of 4 runs]; (compound 0.1 µM) 90.9% [middle of 4 runs]; (compound 0.316 µM) 84.4% [middle of 4 runs]; (compound 1 µM) 70.1% [middle of 4 runs]; (compound 10 µM) 56.8% [middle of 4 runs]. Further, the IC50 (curve of compound) was 8.36 µM and > 10 µM.

Regarding `CNC(=O)c1ccc(N2C(=S)N(c3ccc(C#N)c(C(F)(F)F)c3)C(=O)C2(C)C)cc1F` + COc1c(OCCCN2CCOCC2)ccc2c3n(c(=NC(=O)c4cnc(N)nc4)nc12)CCN3, the IC50 is more than 10 µM under setting [1]; more than 10 µM under setting [2]; more than 10 µM under setting [3]; more than 10 µM under setting [4]; more than 10 µM under setting [5]; more than 10 µM under setting [6]. For the same molecule, the viability, T/C runs as follows: under setting [7], 99.1%; under setting [8], 107%; (second compound 0.00316 µM, first compound 0.316 µM) 101%; (second compound 0.00316 µM, first compound 1 µM) 95.8%; (second compound 0.00316 µM, first compound 3.16 µM) 103%; (second compound 0.00316 µM, first compound 10 µM) 108%. Also, the viability, T/C under setting [9] was 96.6%; the viability, T/C under setting [10] was 94.7%; the viability, T/C (second compound 0.01 µM, first compound 0.316 µM) is 102%; the viability, T/C (second compound 0.01 µM, first compound 1 µM) is 97.5%; the viability, T/C (second compound 0.01 µM, first compound 3.16 µM) is 100%; the viability, T/C (second compound 0.01 µM, first compound 10 µM) is 96.2%. Further, the viability, T/C is, setting by setting: under setting [11], 76%; under setting [12], 88.5%; (second compound 0.0316 µM, first compound 0.316 µM) 89.7%; (second compound 0.0316 µM, first compound 1 µM) 98.1%; (second compound 0.0316 µM, first compound 3.16 µM) 91.9%; (second compound 0.0316 µM, first compound 10 µM) 107%. For the same molecule, the viability, T/C under setting [13] was 75.7%; the viability, T/C under setting [14] is 68.5%; the viability, T/C (second compound 0.1 µM, first compound 0.316 µM) was 83.1%; the viability, T/C (second compound 0.1 µM, first compound 1 µM) is 81%; the viability, T/C (second compound 0.1 µM, first compound 3.16 µM) is 89.4%; the viability, T/C (second compound 0.1 µM, first compound 10 µM) is 87.3%. Further, the viability, T/C is, setting by setting: under setting [15], 76.6%; under setting [16], 68.1%; (second compound 0.316 µM, first compound 0.316 µM) 71.7%; (second compound 0.316 µM, first compound 1 µM) 80.9%; (second compound 0.316 µM, first compound 3.16 µM) 70.5%; (second compound 0.316 µM, first compound 10 µM) 72%. Further, the viability, T/C is, setting by setting: under setting [17], 72.5%; under setting [18], 72%; (second compound 1 µM, first compound 0.316 µM) 50.6%; (second compound 1 µM, first compound 1 µM) 60.1%; (second compound 1 µM, first compound 3.16 µM) 63.5%; (second compound 1 µM, first compound 10 µM) 61.5%.

As for `Cn1cnc2c(F)c(Nc3ccc(Br)cc3Cl)c(C(=O)NOCCO)cc21`, the viability, T/C (compound 0.00949 µM) was 97.5% [middle of 4 runs]; the viability, T/C (compound 0.03 µM) was 91.9% [middle of 4 runs]; the viability, T/C (compound 0.0949 µM) is 90.2% [middle of 4 runs]; the viability, T/C (compound 0.3 µM) is 80.8% [middle of 4 runs]; the viability, T/C (compound 3 µM) is 61.2% [middle of 4 runs]. The IC50 (curve of compound) is > 3 µM and 2.76 µM.

The values are drawn from PubChem BioAssay AID1963980 (Molecular Pharmacology Branch, DTP, NCI, 2024).
